Measurements as given in ChEMBL document CHEMBL6103578, “Design and synthesis three novel series of derivatives using natural acetylcholinesterase inhibitor-RLMS as template and in vitro, in vivo and in silico activities verification” (Eur J Med Chem, 2025).
Calls of active or inactive are those of the source. The rule behind the calls is not given here.

Tests used:
SH-SY5Y [1] = assay: Neuroprotective effect against H2O2-induced cell injury in human SH-SY5Y cells assessed as cell survival at 25 uM preincubated for 1 hr followed by H2O2 addition measured after 2 hrs by MTT assay (reference value: 57.76 %); type: functional; conditions: time 3 hrs, read-out: Activity
[2] = Toxicity in zebrafish assessed as deformaties in animal at 100 uM measured 96 hrs post-fertilization; parameters: species or system Danio rerio; conditions: in vivo
[3] = Toxicity in zebrafish assessed as decrease in survival rate at 100 uM measured 96 hrs post-fertilization; parameters: species or system Danio rerio; conditions: in vivo
Danio rerio [4] = species on record: Danio rerio; assay: Anti-alzheimer activity in AlCl3-treated zebrafish assessed as increase in movement distance at 25 to 75 uM treated for 72 hrs with medium replacement containing compound daily by light/dark cycle behavioral test; type: functional, organism-based; conditions: dose 25-75 µM
[5] = Toxicity in zebrafish assessed as change in heart rate at 1 to 100 uM measured 96 hrs post-fertilization; parameters: species or system Danio rerio; conditions: in vivo, dose 1-100 µM
Acetylcholinesterase [6] = biological target: T1, Acetylcholinesterase (Homo sapiens, UniProt P22303); assay: Binding affinity to AChE (unknown origin) assessed as dissociation constant by MST assay
T1 sequence (P22303 whole entry): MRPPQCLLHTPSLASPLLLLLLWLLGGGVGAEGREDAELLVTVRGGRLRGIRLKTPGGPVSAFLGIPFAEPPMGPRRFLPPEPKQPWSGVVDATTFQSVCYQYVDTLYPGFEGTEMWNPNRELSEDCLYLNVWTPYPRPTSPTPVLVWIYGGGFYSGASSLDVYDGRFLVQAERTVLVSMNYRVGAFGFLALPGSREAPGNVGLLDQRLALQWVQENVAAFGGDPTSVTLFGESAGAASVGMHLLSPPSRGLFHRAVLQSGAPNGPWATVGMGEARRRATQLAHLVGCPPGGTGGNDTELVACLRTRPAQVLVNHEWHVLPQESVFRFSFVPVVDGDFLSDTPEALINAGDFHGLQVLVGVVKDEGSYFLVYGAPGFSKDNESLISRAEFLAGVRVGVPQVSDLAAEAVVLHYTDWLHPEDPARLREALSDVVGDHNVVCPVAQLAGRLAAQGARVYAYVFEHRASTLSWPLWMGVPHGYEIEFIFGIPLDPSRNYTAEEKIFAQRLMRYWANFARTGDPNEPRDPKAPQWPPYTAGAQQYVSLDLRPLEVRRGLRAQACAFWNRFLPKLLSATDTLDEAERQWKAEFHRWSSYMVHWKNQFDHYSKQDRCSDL

Danio rerio [7] = species on record: Danio rerio; assay: Anti-alzheimer activity in AlCl3-treated zebrafish assessed as increase in movement speed at 25 to 75 uM treated for 72 hrs with medium replacement containing compound daily by light/dark cycle behavioral test; type: functional, organism-based; conditions: dose 25-75 µM
[8] = Toxicity in zebrafish assessed as malformation in animal at 100 uM measured 96 hrs post-fertilization; parameters: species or system Danio rerio; conditions: in vivo
Acetylcholinesterase [9] = biological target: T1, Acetylcholinesterase; assay: Mixed competitive inhibition of AChE (unknown origin) at 2 to 8 uM by DTNB assay; conditions: dose 2-8 µM
Danio rerio [10] = species on record: Danio rerio; assay: Anti-alzheimer activity in AlCl3-treated zebrafish assessed as inhibition of apoptosis in brain treated for 72 hrs with medium replacement containing compound daily by AO staining based analysis; type: functional, organism-based; conditions: dose 25-75 µM
SH-SY5Y [11] = assay: Neuroprotective effect against H2O2-induced cell injury in human SH-SY5Y cells assessed as cell survival at 25 to 100 uM preincubated for 1 hr followed by H2O2 addition measured after 2 hrs by MTT assay (reference value: 57.76 %); type: functional; conditions: dose 25-100 µM, time 3 hrs
Acetylcholinesterase [12] = biological target: T1, Acetylcholinesterase; assay: Inhibition of AChE (unknown origin) using ATCI as substrate preincubated for 20 mins followed by substrate addition measured after 30 mins by DTNB assay

C[C@@H]1CC[C@]2(C(=O)NCc3ccccc3Cl)CC[C@]3(C)C(=CC[C@@H]4[C@@]5(C)C[C@@H](O)[C@H](O)[C@@](C)(CO)[C@@H]5CC[C@]43C)[C@@H]2[C@]1(C)O
viability at 25 µM (SH-SY5Y [1]): 80%
Activity [2]: Toxic
Activity [3]: Toxic
Activity (Danio rerio [4]): Active
Activity [5]: Non-toxic
Kd (Acetylcholinesterase [6]): 5.37 µM
Activity (Danio rerio [7]): Active
Activity [8]: Toxic
inhibition (Acetylcholinesterase [9]): Active
Activity (Danio rerio [10]): Dose-dependent-effect
Activity (SH-SY5Y [11]): >57.76%
IC50 (Acetylcholinesterase [12]): 3.7 µM
